This note sets out measurements from the METLIN SMRT retention time set (Domingo-Almenara et al. 2019).

The nature of this series: gradient 5% acetonitrile 3 min, to 50% in 2 min, to 85% in 15 min, held 3 min, 100 µL/min. The conditions noted are these: column: Zorbax Extend-C18 2.1 x 50 mm; eluents: water / acetonitrile, 0.1% formic acid. The method in brief: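 Standards, all pure, were combined into mixtures of ~100 molecules and run at 100 μL/min on a Zorbax Extend-C18 column (2.1 × 50 mm, 1.8 μm) with water and acetonitrile, each containing 0.1% formic acid. A coupled quadrupole time-of-flight mass spectrometer operated in positive and negative ionization mode. Retention time values come from computationally picked adduct peaks, each inspected manually.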
Consider `Cc1c(CNCc2ccccn2)c(C(=O)O)c(C)n1Cc1ccc(F)cc1`, for which the RP-LC retention time was found to be 670 s. `O=C(NCc1ccc(F)cc1)[C@@H]1COCC(=O)N1Cc1ccc(F)cc1` came in with an RP-LC retention time of 791 s.

`Cc1ccc(NC(=O)CN2C(=O)CCCc3cc(S(=O)(=O)N4CCCC4)ccc32)c(Cl)c1`: the RP-LC retention time turned out to be 912 s. As to `O=C(Nc1nc(-c2ccccc2)cs1)c1c(-c2ccc(F)cc2)nc2n1CCS2(=O)=O`, the RP-LC retention time is 1020 s. Then `COc1ccc(C2c3c(n(C)c4ccccc34)C(=O)N2CC(=O)NCc2ccco2)cc1` (centres undefined), with 924 s; and `CCOc1cc2c(cc1OCC)C1C(C(=O)N3CCN(CC)CC3)c3ccccc3C(=O)N1CC2` (centres undefined), with 638 s; and `CCCn1cc2c3c(cccc31)CN(C(=O)Nc1cc(OC)c(OC)c(OC)c1)CC2`, with 970 s.

`O=C(Nc1ccccc1)NC1CCCN(c2cc(-c3ccncc3)[nH]n2)C1` (centres undefined) registered an RP-LC retention time of 602 s.

Regarding `CCOC(=O)CNc1ncnc2nc[nH]c12`, the RP-LC retention time worked out at 513 s. As for `CC1(C)CC(=O)c2cn(-c3ccccc3)c(=O)c(C(=O)Nc3cccnc3)c2C1`, the figure is 700 s.

Molecule `CCCn1nc(CNC(=O)Cc2cccs2)c2ccccc21` had an RP-LC retention time of 847 s. As for `Cc1nc(-c2cc(S(=O)(=O)N3CCCCC3C)c(C)s2)sc1C` (centres undefined), the figure is 1220 s. As for `Cc1cc(-c2nnc(-c3ccc(F)cc3)o2)c(C)n1CC(=O)NCc1cccs1`, the figure is 905 s; as for `COCc1noc([C@@H]2CN(C(=O)CC3CCCC3)C[C@H]2CO)n1`, 670 s. Molecule `COC(=O)c1cc2c(=O)n(-c3ccc4c(c3)OCCO4)ccc2nc1C` returned an RP-LC retention time of 780 s. For `O=C([C@@H]1C[C@H](Oc2ccccc2)CN1C(=O)CCc1nc2ccccc2s1)N1CCCC1`, the RP-LC retention time amounted to 815 s. In turn, `Cc1ccc(-c2ccc(=O)n(Cc3noc(C(=O)NCCc4ccc(S(N)(=O)=O)cc4)n3)n2)cc1` displayed an RP-LC retention time of 781 s.

For `Cc1ccccc1OCc1ccc(-c2nc(C#N)c(NCCCN(C)C)o2)o1`, the RP-LC retention time was found to be 727 s. As for `O=C(Nc1ccc(F)cc1)C1CCN(C(=O)C2Sc3ccccc3NC2=O)CC1` (centres undefined), the figure is 746 s. As for `COc1ccc(N2CC(c3noc(-c4ccc5c(c4)OCO5)n3)CC2=O)cc1` (centres undefined), the figure is 874 s.

Take `Cc1noc(C)c1Cc1ccc(C(=O)N(C)C2CCc3nnc(C)n3CC2)o1` (centres undefined): the RP-LC retention time is 602 s.

On to `CCn1cc(C)c(C(=O)O)c1CC(=O)Nc1ccc(C)cn1`, for which the RP-LC retention time was found to be 680 s. In the case of `O=C(CS(=O)(=O)c1c[nH]c2ccccc12)Nc1ccc2c(c1)OCCO2`, the RP-LC retention time amounted to 651 s. For `CC(C)c1noc(-c2ccc(-n3cnc(C(=O)Nc4ccc(F)cc4)c3)nc2)n1`, the RP-LC retention time worked out at 1020 s. For the molecule `O=C(Cn1cnc2nc(N3CCC(C(=O)NC4CC4)CC3)sc2c1=O)Nc1ccc(F)cc1`, the RP-LC retention time worked out at 655 s. Molecule `COc1ccc(NC(=O)Cn2nc3cc(C)nc(Nc4ccc(C)c(F)c4)n3c2=O)cc1` returned an RP-LC retention time of 1040 s.

In turn, `O=C(CSc1nc2ccccc2o1)NCCn1nc(-c2cccs2)ccc1=O` gave an RP-LC retention time of 718 s. As for `O=C(NCCc1ccccc1)C1=Cc2ccccc2OC=C1`, the RP-LC retention time was determined as 1010 s. Then `O=C1NCCCn2cc(S(=O)(=O)N3CCN(c4ccccc4)CC3)cc21`, with 724 s; and `Cc1cc(N2CCOCC2)nc(N2CCN(S(=O)(=O)c3cc(C)c(C)cc3C)CC2)n1`, with 733 s. Then `CCN1C(=O)CCC2(C(=O)Nc3ccc(C)cc3)CCCC=C12` (centres undefined), with 781 s; and `Cc1nc(C)c(C(=O)NC2CCc3nn(CC4CC4)c(=O)n3CC2)s1` (centres undefined), with 597 s; and `Cc1nc(-c2csc(S(=O)(=O)N3CCCC(C(=O)N4CCC5(CC4)OCCO5)C3)c2)no1` (centres undefined), with 798 s. The molecule `CCOC(=O)CC1(NC(=O)Nc2ccc3nc(C)cc(OC)c3c2)CCCCC1` registered an RP-LC retention time of 689 s. `O=C(NCc1cccc(F)c1)c1ccc(-c2ccsc2)nc1`: the RP-LC retention time stood at 871 s. As for `O=C(Cc1csc2nc(-c3ccccc3)cn12)N1CCN(c2ccccc2)CC1`, the figure is 820 s; as for `CC(=O)NCc1nc(-c2cccc(-c3csc(C)n3)c2)no1`, 704 s. In turn, `CCc1nnc(C2CN(C)CC23CCN(S(=O)(=O)c2cccc(Cl)c2)CC3)o1` (centres undefined) displayed an RP-LC retention time of 645 s. As to `CCc1noc(NC(C)=O)c1-c1ccc(C)c(S(=O)(=O)Nc2cccc(C#N)c2)c1`, the RP-LC retention time was determined as 776 s. As for `CCOc1ccc(NC(=O)NCc2nc(-c3ccc(OCC)cc3)oc2C)cc1`, the figure is 656 s; as for `Cc1ccc2[nH]cc(CCN3CC(C(=O)N4CCCCC4)CC3=O)c2c1` (centres undefined), 768 s; as for `CCOC(=O)CCC(=O)Nc1ncc(C#N)s1`, 667 s.

`CCC(=O)N1CCN(c2nc3c(s2)CC(C(=O)Nc2ccc(Cl)c(C)c2)CC3)CC1` (centres undefined): the RP-LC retention time is 607 s. Consider `Cc1cnc2c(c1SCC(=O)N(C)c1ccccc1)c(=O)n(C)c(=O)n2C`, for which the RP-LC retention time was 769 s.

In the case of `C=CCn1c(C)c(CC(=O)NCCCC)c(=O)n2nc(-c3ccccc3)nc12`, the RP-LC retention time was 818 s. Then `COCCNC(=O)Cn1nc(-c2ccc(Cl)cc2)c2c(C)onc2c1=O`, with 749 s; and `CCCN(Cc1ccc(OC)c(OC)c1)Cc1cc(=O)n2ccccc2n1`, with 592 s; and `CCCn1cc(C(=O)Nc2ccc(S(N)(=O)=O)cc2)c(=O)c2ccc(C)nc21`, with 867 s. The molecule `CCNc1cc(N2CCC(CCC(=O)Nc3ccc(OCC)cc3)CC2)ncn1` had an RP-LC retention time of 682 s. As for `O=C(Cn1c(=O)cnc2cc(C(=O)NC3CC3)ccc21)Nc1ccccc1C(F)(F)F`, the RP-LC retention time is 646 s. As for `CS(=O)(=O)N1CCC(C(=O)N2CCCC(c3nnc(-c4cccs4)o3)C2)CC1` (centres undefined), the figure is 642 s; as for `Cc1ccc(S(=O)(=O)N2CCCC2)cc1-c1nnc(-c2ccc(F)cc2)o1`, 1040 s; as for `O=S(=O)(Cc1cccc(Cl)c1)N1CCc2nc[nH]c2C1`, 616 s. As for `Cc1ccc(-c2noc(Cn3cnc4c(cnn4-c4ccc(Br)cc4)c3=O)n2)cc1`, the figure is 1250 s; as for `CC1Oc2ccccc2N(Cc2nc(-c3ccc4c(c3)OCO4)no2)C1=O` (centres undefined), 1010 s. Consider `Cc1ccc(-c2nc3cccc(C)n3c2Nc2ccc3c(c2)OCCO3)cc1`, for which the RP-LC retention time worked out at 710 s.

For the molecule `CCOC(=O)c1cc(C2CC2)nc2c1c(=O)n(Cc1ccccc1C)c(=O)n2C`, the RP-LC retention time was found to be 1240 s.

As to `CCOc1ccc(CC(=O)N2CCCn3nc(-c4cccc(C)c4)cc3C2)cc1`, the RP-LC retention time was 968 s.

The molecule `COc1ccc(NC(=O)c2cn3c(n2)CCCC3)c(OC)c1` yielded an RP-LC retention time of 610 s. As for `Cc1c(N2CCN(C(=O)c3cccc(F)c3)CC2)c(=O)n(C)c(=O)n1C`, the figure is 698 s; as for `COc1ccc(-c2cn3c(CC(=O)Nc4ccc(OC)c(Cl)c4)csc3n2)cc1`, 805 s. Then `Cc1nnc(NC(=O)Cc2csc(NC(=O)C3CCCC3)n2)s1`, with 677 s. Then `Cc1c(C(=O)NCC2CC2)cnn1-c1cc(-c2nc(C(C)C)no2)ccn1`, with 1020 s. `CCOc1ccc(N2CC(c3nc(-c4cccc(OC)c4OC)no3)CC2=O)cc1` (centres undefined): the RP-LC retention time was determined as 922 s. Then `O=C(NCc1ccco1)c1ccc(Nc2c(-c3ccccc3)nc3cnccn23)cc1`, with 733 s; and `CN(C)S(=O)(=O)c1cccc(-c2nnc(-c3ccccc3Br)o2)c1`, with 947 s; and `Cc1cc(N2C=C(C(=O)N3CCCC3)S(=O)(=O)c3ccc(F)cc32)ccc1F`, with 854 s. In the case of `Cc1nn(-c2ccc(F)cc2)c(C)c1S(=O)(=O)N1CCC(C(=O)N2CCCC2)CC1`, the RP-LC retention time is 790 s. Then `COC(=O)c1c(C)[nH]c(C(=O)N2CCC(CC(=O)NCC3CCCO3)CC2)c1C` (centres undefined), with 632 s.

In the case of `COCc1nnc(-c2ccc3c(c2)OCO3)o1`, the RP-LC retention time was found to be 722 s. Molecule `Cc1ccc2ncn(C3CCN(S(=O)(=O)c4ccccc4F)CC3)c(=O)c2c1` had an RP-LC retention time of 940 s. With `CC1CCCCN1S(=O)(=O)c1cc(-c2nnc(C3CC3)o2)co1` (centres undefined), the RP-LC retention time is 896 s. As for `COc1cccc(CCN2CC(=O)N(c3cccc(C)c3)[C@@H]3CS(=O)(=O)C[C@@H]32)c1`, the figure is 849 s; as for `N#Cc1ccc(C(=O)N2CCOCCNC(=O)[C@@H]3CCC[C@@H]32)cc1`, 659 s. As for `COc1ccc(Cl)cc1NC(=O)Cn1nc(N2CCCC2)c2ccccc2c1=O`, the figure is 1090 s; as for `CC(C)CN1CCn2cc(C(=O)NC(C)c3ccccc3)nc2C1` (centres undefined), 613 s; as for `O=C(NC1CC1)c1ccc(OCC2CCCN(C(=O)c3cc(F)ccc3F)C2)cc1` (centres undefined), 820 s. Molecule `COCc1nc2nccc(-c3ccc(OC)cc3F)n2n1` showed an RP-LC retention time of 711 s. As for `CCOc1ccc(-c2noc(-c3nn(-c4ccccc4)ccc3=O)n2)cc1`, the figure is 919 s.
